Key:
Assay type in all cases: cell-based, human
TK-10 = test: NCI in vitro cancer screen, Renal Cancer; conditions: TK-10
MDA-MB-468 = test: NCI in vitro cancer screen, Breast Cancer; conditions: MDA-MB-468
RPMI-8226 = test: NCI in vitro cancer screen, Leukemia; conditions: RPMI-8226
RXF-393 = test: NCI in vitro cancer screen, Renal Cancer; conditions: RXF-393
LOX IMVI = test: NCI in vitro cancer screen, Melanoma
PC-3 = test: NCI in vitro cancer screen, Prostate Cancer; conditions: PC-3
UACC-62 = test: NCI in vitro cancer screen, Melanoma; conditions: UACC-62
A498 = test: NCI in vitro cancer screen, Renal Cancer; conditions: A498
SR = test: NCI in vitro cancer screen, Leukemia
SK-MEL-28 = test: NCI in vitro cancer screen, Melanoma; conditions: SK-MEL-28
EKVX = test: NCI in vitro cancer screen, Non-Small Cell Lung Cancer
786-0 = test: NCI in vitro cancer screen, Renal Cancer; conditions: 786-0
HS 578T = test: NCI in vitro cancer screen, Breast Cancer
HCT-15 = test: NCI in vitro cancer screen, Colon Cancer; conditions: HCT-15
SK-OV-3 = test: NCI in vitro cancer screen, Ovarian Cancer; conditions: SK-OV-3
SK-MEL-2 = test: NCI in vitro cancer screen, Melanoma; conditions: SK-MEL-2
NCI-H460 = test: NCI in vitro cancer screen, Non-Small Cell Lung Cancer; conditions: NCI-H460
M14 = test: NCI in vitro cancer screen, Melanoma; conditions: M14
SK-MEL-5 = test: NCI in vitro cancer screen, Melanoma; conditions: SK-MEL-5
OVCAR-8 = test: NCI in vitro cancer screen, Ovarian Cancer; conditions: OVCAR-8
SF-268 = test: NCI in vitro cancer screen, CNS Cancer; conditions: SF-268
HOP-62 = test: NCI in vitro cancer screen, Non-Small Cell Lung Cancer; conditions: HOP-62
SN12C = test: NCI in vitro cancer screen, Renal Cancer
MDA-MB-435 = test: NCI in vitro cancer screen, Melanoma; conditions: MDA-MB-435
T-47D = test: NCI in vitro cancer screen, Breast Cancer
NCI-H23 = test: NCI in vitro cancer screen, Non-Small Cell Lung Cancer; conditions: NCI-H23
CCRF-CEM = test: NCI in vitro cancer screen, Leukemia
HCC-2998 = test: NCI in vitro cancer screen, Colon Cancer; conditions: HCC-2998
[1] = Homo sapiens, read-out: LC50 (the source's name)

Work on COc1cc(/C=C/c2cc(O)c(CC=C(C)C)c(O)c2)ccc1O [USYDS13, (E)-4-(3-methyl-2-buten-1-yl)-3,4′,5-trihydroxy-3′-methoxystilbene] yielded a GI50 (TK-10; Homo sapiens) of 6.98 µM, an LC50 (TK-10; Homo sapiens) greater than 100 µM and a TGI (TK-10) of 31.4 µM. It also gave a GI50 (MDA-MB-468; Homo sapiens) of 1.68 µM, a CC50 (MDA-MB-468; [1]) greater than 100 µM and a TGI (MDA-MB-468) of 7.63 µM. For the same compound, the GI50 (RPMI-8226; Homo sapiens) was 9.05 µM, the CC50 (RPMI-8226; [1]) was greater than 100 µM and the TGI (RPMI-8226) was 51.6 µM. For the same compound, the GI50 (RXF-393; Homo sapiens) was 5.48 µM, the CC50 (RXF-393; [1]) was 46.5 µM and the TGI (RXF-393) was 18.9 µM. It also gave a TGI (LOX IMVI) of 20.2 µM, a GI50 (LOX IMVI; Homo sapiens) of 4.48 µM and a CC50 (LOX IMVI; [1]) of 80 µM. The GI50 (PC-3; Homo sapiens) was 6.36 µM, the CC50 (PC-3; [1]) was greater than 100 µM and the TGI (PC-3) was greater than 100 µM. For the same compound, the GI50 (UACC-62; Homo sapiens) was 5.3 µM, the CC50 (UACC-62; [1]) was 58.8 µM and the TGI (UACC-62) was 19.7 µM. For the same compound, the TGI (A498) was 21.0 µM, the GI50 (A498; Homo sapiens) was 3.88 µM and the CC50 (A498; [1]) was 63.5 µM. The TGI (SR) was greater than 100 µM, the GI50 (SR; Homo sapiens) was 2.8 µM and the CC50 (SR; [1]) was greater than 100 µM. The GI50 (SK-MEL-28; Homo sapiens) was 5.64 µM, the LC50 (SK-MEL-28; Homo sapiens) was 70.5 µM and the TGI (SK-MEL-28) was 22.5 µM. For the same compound, the TGI (EKVX) was 54.6 µM, the GI50 (EKVX; Homo sapiens) was 12.8 µM and the CC50 (EKVX; [1]) was greater than 100 µM. For the same compound, the TGI (786-0) was 24.5 µM, the GI50 (786-0; Homo sapiens) was 5.24 µM and the LC50 (50% net cell kill) (786-0; Homo sapiens) was greater than 100 µM. For the same compound, the TGI (HS 578T) was 15.0 µM, the GI50 (HS 578T; Homo sapiens) was 2.4 µM and the CC50 (HS 578T; [1]) was greater than 100 µM. The TGI (HCT-15) was 20.5 µM, the GI50 (HCT-15; Homo sapiens) was 4.25 µM and the CC50 (HCT-15; [1]) was 84.5 µM. For the same compound, the GI50 (SK-OV-3; Homo sapiens) was 7.96 µM, the CC50 (SK-OV-3; [1]) was greater than 100 µM and the TGI (SK-OV-3) was 36.2 µM. It also gave a GI50 (SK-MEL-2; Homo sapiens) of 3.09 µM, an LC50 (SK-MEL-2; Homo sapiens) of 40.2 µM and a TGI (SK-MEL-2) of 9.37 µM. For the same compound, the GI50 (NCI-H460; Homo sapiens) was 3.09 µM, the CC50 (NCI-H460; [1]) was greater than 100 µM and the TGI (NCI-H460) was 15.6 µM. For the same compound, the GI50 (M14; Homo sapiens) was 4.92 µM, the CC50 (M14; [1]) was 51.6 µM and the TGI (M14) was 18.5 µM. The GI50 (SK-MEL-5; Homo sapiens) was 2.5 µM, the CC50 (SK-MEL-5; [1]) was 29.2 µM and the TGI (SK-MEL-5) was 8.54 µM. The GI50 (OVCAR-8; Homo sapiens) was 5.48 µM, the CC50 (OVCAR-8; [1]) was greater than 100 µM and the TGI (OVCAR-8) was 59.8 µM. For the same compound, the GI50 (SF-268; Homo sapiens) was 6.17 µM, the CC50 (SF-268; [1]) was greater than 100 µM and the TGI (SF-268) was 32.9 µM. For the same compound, the TGI (HOP-62) was 20.4 µM, the GI50 (HOP-62; Homo sapiens) was 5.66 µM and the CC50 (HOP-62; [1]) was 53.7 µM. For the same compound, the TGI (SN12C) was greater than 100 µM, the GI50 (SN12C; Homo sapiens) was 7.16 µM and the CC50 (SN12C; [1]) was greater than 100 µM. The GI50 (MDA-MB-435; Homo sapiens) was 3.08 µM, the CC50 (MDA-MB-435; [1]) was greater than 100 µM and the TGI (MDA-MB-435) was 15.9 µM. The TGI (T-47D) was 14.7 µM, the GI50 (T-47D; Homo sapiens, T47D) was 2.92 µM and the CC50 (T-47D; Homo sapiens, T47D, read-out: LC50 (the source's name)) was 70.5 µM. The GI50 (NCI-H23; Homo sapiens) was 5.66 µM, the LC50 (NCI-H23; Homo sapiens) was greater than 100 µM and the TGI (NCI-H23) was 28.0 µM. The TGI (CCRF-CEM) was greater than 100 µM, the GI50 (CCRF-CEM; Homo sapiens) was 6.56 µM and the CC50 (CCRF-CEM; [1]) was greater than 100 µM. For the same compound, the TGI (HCC-2998) was 30.6 µM, the GI50 (HCC-2998; Homo sapiens) was 11 µM and the CC50 (HCC-2998; [1]) was 85.3 µM.
